From patent US10828315B2 (Madrigal Pharmaceuticals, Inc., priority 2013, dated 2020)
Where two headings read alike, the source gives them in different places.

What was measured:
[1] = Mouse plasma stability protocol, up to 1 h (Examples 16-18)
HER2 = HER2 degradation assay with BT-474 cell line (Example 12, FACS); assay type: cell-based, human
[2] = % Remaining of parent after 1 h incubation in mouse plasma at 37° C. (10 μM)

SMILES	% Remaining (1 h) [1, 2]	% Remaining (1 h, 37° C.) ([1]; mouse plasma, 37° C.)	IC50 (HER2)	% Remaining (1 h) ([1]; mouse plasma, 37° C., 10 μM)	IC50 (HER2; BT-474 cells, overnight)
CCNC(=O)c1nnc(-c2cc(C(C)C)c(O)cc2O)n1-c1ccc(C(=O)N2CCN(C(=O)COC(=O)OC3(CC)C(=O)OCc4c3cc3n(c4=O)Cc4c-3nc3ccc(O)cc3c4CC)CC2)cc1 (stereo not drawn) [SDC-TRAP-0202, 4,11-diethyl-9-hydroxy-3,14-dioxo-3,4,12,14-tetrahydro-1H-pyrano[3′,4′:6,7]indolizino[1,2-b]quinolin-4-yl (2-(4-(4-(3-(2,4-dihydroxy-5-isopropylphenyl)-5-(ethylcarbamoyl)-4H-1,2,4-triazol-4-yl)benzoyl)piperazin-1-yl)-2-oxoethyl) carbonate]	21.2%	21.2%	> 5000 nM		
CCNC(=O)c1nnc(-c2cc(C(C)C)c(O)cc2O)n1-c1ccc(OC2CCN(C(=O)C3CCN(C(=O)Oc4ccc5nc6c(c(CC)c5c4)Cn4c-6cc5c(c4=O)COC(=O)[C@]5(O)CC)C(C)C3)CC2)cc1 (stereo partly drawn) [SDC-TRAP-0213, (S)-4,11-diethyl-4-hydroxy-3,14-dioxo-3,4,12,14-tetrahydro-1H-pyrano[3′,4′:6,7]indolizino[1,2-b]quinolin-9-yl 4-(4-(4-(3-(2,4-dihydroxy-5-isopropylphenyl)-5-(ethylcarbamoyl)-4H-1,2,4-triazol-4-yl)phenoxy)piperidine-1-carbonyl)-2-methylpiperidine-1-carboxylate]	74.7%	74.7%	248 nM		
CCNC(=O)c1nnc(-c2cc(C(C)C)c(O)cc2O)n1-c1ccc(OC2CCN(C(=O)[C@@H]3CCCN3C(=O)Oc3ccc4nc5c(c(CC)c4c3)Cn3c-5cc4c(c3=O)COC(=O)[C@]4(O)CC)CC2)cc1 [SDC-TRAP-0209]	67.1%	67.1%	1130 nM		
CCc1c2c(nc3ccc(OC(=O)N4CCCCC4C(=O)N4CCC(CCn5ccc6cc(-n7c(O)nnc7-c7cc(C(C)C)c(O)cc7O)ccc65)CC4)cc13)-c1cc3c(c(=O)n1C2)COC(=O)[C@]3(O)CC (stereo partly drawn) [SDC-TRAP-0215, (S)-4,11-diethyl-4-hydroxy-3,14-dioxo-3,4,12,14-tetrahydro-1H-pyrano[3′,4′:6,7]indolizino[1,2-b]quinolin-9-yl 2-(4-(2-(5-(3-(2,4-dihydroxy-5-isopropylphenyl)-5-hydroxy-4H-1,2,4-triazol-4-yl)-1H-indol-1-yl)ethyl)piperidine-1-carbonyl)piperidine-1-carboxylate]		77.2%	2750 nM		
CCNC(=O)c1nnc(-c2cc(C(C)C)c(O)cc2O)n1-c1ccc(OC2CCN(C(=O)Oc3c(C)cc(COC(=O)Nc4cccc5c4CN(C4CCC(=O)NC4=O)C5=O)cc3C)CC2)cc1 (stereo not drawn) [SDC-TRAP-0187, 4-((((2-(2,6-dioxopiperidin-3-yl)-1-oxoisoindolin-4-yl)carbamoyl)oxy)methyl)-2,6-dimethylphenyl 4-(4-(3-(2,4-dihydroxy-5-isopropylphenyl)-5-(ethylcarbamoyl)-4H-1,2,4-triazol-4-yl)phenoxy)piperidine-1-carboxylate]	102%		72 nM		
CCNC(=O)c1nnc(-c2cc(C(C)C)c(O)cc2O)n1-c1ccc(CN2CCC(C(=O)N3CCN(C(=O)Oc4ccc5nc6c(c(CC)c5c4)Cn4c-6cc5c(c4=O)COC(=O)C5(O)CC)C(C)C3)CC2)cc1 (stereo not drawn) [SDC-TRAP-0185, 4,11-diethyl-4-hydroxy-3,14-dioxo-3,4,12,14-tetrahydro-1H-pyrano[3′,4′:6,7]indolizino[1,2-b]quinolin-9-yl 4-(1-(4-(3-(2,4-dihydroxy-5-isopropylphenyl)-5-(ethylcarbamoyl)-4H-1,2,4-triazol-4-yl)benzyl)piperidine-4-carbonyl)-2-methylpiperazine-1-carboxylate]	68.1%	68.1%	38 nM	68.1%	
CCc1c2c(nc3ccc(O)cc13)-c1cc3c(c(=O)n1C2)COC(=O)C3(CC)OC(=O)CN1CCC(Cc2ccc(-n3c(O)nnc3-c3cc(C(C)C)c(O)cc3O)cc2)CC1 (stereo not drawn) [SDC-TRAP-0071, 4,11-diethyl-9-hydroxy-3,14-dioxo-3,4,12,14-tetrahydro-1H-pyrano[3′,4′:6,7]indolizino[1,2-b]quinolin-4-yl 2-(4-(4-(3-(2,4-dihydroxy-5-isopropylphenyl)-5-hydroxy-4H-1,2,4-triazol-4-yl)benzyl)piperidin-1-yl)acetate]	102%	102%	307 nM		
CCNC(=O)c1nnc(-c2cc(C(C)C)c(O)cc2O)n1-c1ccc(C(=O)N2CCN(c3ccc(OC(=O)Nc4cccc5c4CN(C4CCC(=O)NC4=O)C5=O)c(OC)c3)CC2)cc1 (stereo not drawn) [SDC-TRAP-0173, 4-(4-(4-(3-(2,4-dihydroxy-5-isopropylphenyl)-5-(ethylcarbamoyl)-4H-1,2,4-triazol-4-yl)benzoyl)piperazin-1-yl)-2-methoxyphenyl (2-(2,6-dioxopiperidin-3-yl)-1-oxoisoindolin-4-yl)carbamate]			323 nM		
CCc1c2c(nc3ccc(OC(=O)N4CCN(C(=O)c5cc6cc(-n7c(O)nnc7-c7cc(C(C)C)c(O)cc7O)ccc6n5C)CC4)cc13)-c1cc3c(c(=O)n1C2)COC(=O)C3(O)CC (stereo not drawn) [SDC-TRAP-0072, 4,11-diethyl-4-hydroxy-3,14-dioxo-3,4,12,14-tetrahydro-1H-pyrano[3′,4′:6,7]indolizino[1,2-b]quinolin-9-yl 4-(5-(3-(2,4-dihydroxy-5-isopropylphenyl)-5-hydroxy-4H-1,2,4-triazol-4-yl)-1-methyl-1H-indole-2-carbonyl)piperazine-1-carboxylate]			> 5000 nM		
CCc1c2c(nc3ccc(O)cc13)-c1cc3c(c(=O)n1C2)COC(=O)[C@@]3(CC)OC(=O)N(C)CCCN1CCN(Cc2ccc(-n3c(O)nnc3-c3cc(C(C)C)c(O)cc3O)cc2)CC1 [SDC-TRAP-0084, (S)-4,11-diethyl-9-hydroxy-3,14-dioxo-3,4,12,14-tetrahydro-1H-pyrano[3′,4′:6,7]indolizino[1,2-b]quinolin-4-yl (3-(4-(4-(3-(2,4-dihydroxy-5-isopropylphenyl)-5-hydroxy-4H-1,2,4-triazol-4-yl)benzyl)piperazin-1-yl)propyl)(methyl)carbamate]			1130 nM		
CCc1c2c(nc3ccc(O)cc13)-c1cc3c(c(=O)n1C2)COC(=O)[C@@]3(CC)OC(=O)N1CCN(c2ccc(-n3c(O)nnc3-c3cc(C(C)C)c(O)cc3O)cn2)CC1 [SDC-TRAP-0091, (S)-4,11-diethyl-9-hydroxy-3,14-dioxo-3,4,12,14-tetrahydro-1H-pyrano[3′,4′:6,7]indolizino[1,2-b]quinolin-4-yl 4-(5-(3-(2,4-dihydroxy-5-isopropylphenyl)-5-hydroxy-4H-1,2,4-triazol-4-yl)pyridin-2-yl)piperazine-1-carboxylate]			> 5000 nM		
COc1ccc(/C=C\c2cc(OC)c(OC)c(OC)c2)cc1OC(=O)N1CCN(Cc2ccc(-n3c(O)nnc3-c3cc(C(C)C)c(O)cc3O)cc2)CC1 [SDC-TRAP-0085, (Z)-2-methoxy-5-(3,4,5-trimethoxystyryl)phenyl 4-(4-(3-(2,4-dihydroxy-5-isopropylphenyl)-5-hydroxy-4H-1,2,4-triazol-4-yl)benzyl) piperazine-1-carboxylate]			889 nM		
CCc1c2c(nc3ccc(O)cc13)-c1cc3c(c(=O)n1C2)COC(=O)[C@@]3(CC)OC(=O)N(C)CCN1CCN(Cc2ccc(-n3c(O)nnc3-c3cc(C(C)C)c(O)cc3O)cc2)CC1 [SDC-TRAP-0087, (S)-4,11-diethyl-9-hydroxy-3,14-dioxo-3,4,12,14-tetrahydro-1H-pyrano[3′,4′:6,7]indolizino[1,2-b]quinolin-4-yl (2-(4-(4-(3-(2,4-dihydroxy-5-isopropylphenyl)-5-hydroxy-4H-1,2,4-triazol-4-yl)benzyl)piperazin-1-yl)ethyl)(methyl)carbamate]			535 nM		
CCc1c2c(nc3ccc(O)cc13)-c1cc3c(c(=O)n1C2)COC(=O)C3(CC)OC(=O)CCC(=O)NCCn1ccc2cc(-n3c(O)nnc3-c3cc(C(C)C)c(O)cc3O)ccc21 (stereo not drawn) [SDC-TRAP-0026]			1780 nM		
CCc1c2c(nc3ccc(OC(=O)N4CCC(CN5CCC(Cc6ccc(-n7c(O)nnc7-c7cc(C(C)C)c(O)cc7O)cc6)CC5)CC4)cc13)-c1cc3c(c(=O)n1C2)COC(=O)C3(O)CC (stereo not drawn) [SDC-TRAP-0067, 4,11-diethyl-4-hydroxy-3,14-dioxo-3,4,12,14-tetrahydro-1H-pyrano[3′,4′:6,7]indolizino[1,2-b]quinolin-9-yl 4-((4-(4-(3-(2,4-dihydroxy-5-isopropylphenyl)-5-hydroxy-4H-1,2,4-triazol-4-yl)benzyl)piperidin-1-yl)methyl)piperidine-1-carboxylate]			196 nM		
CCc1c2c(nc3ccc(OC(=O)N4CCC(CCc5ccc(-n6c(O)nnc6-c6cc(C(C)C)c(O)cc6O)cc5)CC4)cc13)-c1cc3c(c(=O)n1C2)COC(=O)[C@]3(O)CC [SDC-TRAP-0086, (S)-4,11-diethyl-4-hydroxy-3,14-dioxo-3,4,12,14-tetrahydro-1H-pyrano[3′,4′:6,7]indolizino[1,2-b]quinolin-9-yl 4-(4-(3-(2,4-dihydroxy-5-isopropylphenyl)-5-hydroxy-4H-1,2,4-triazol-4-yl)phenethyl)piperidine-1-carboxylate]			> 5000 nM		
CCOC(=O)c1nnc(-c2cc(C(C)C)c(O)cc2O)n1-c1ccc(CN2CCC(C(=O)N[C@H]3C[C@H](O[C@H]4C[C@](O)(C(=O)CO)Cc5c(O)c6c(c(O)c54)C(=O)c4c(OC)cccc4C6=O)O[C@@H](C)[C@H]3O)CC2)cc1 [SDC-TRAP-0142, ethyl-5-(2,4-dihydroxy-5-isopropylphenyl)-4-(4-((4-(((2S,3S,4S,6R)-3-hydroxy-2-methyl-6-(((1S,3S)-3,5,12-trihydroxy-3-(2-hydroxyacetyl)-10-methoxy-6,11-dioxo-1,2,3,4,6,11-hexahydrotetracen-1-yl)oxy)tetrahydro-2H-pyran-4-yl)carbamoyl)piperidin-1-yl)methyl)phenyl)-4H-1,2,4-triazole-3-carboxylate]					> 10000 nM
